From patent US5972976A, “Aminostilbazole derivative and medicine” (priority 1994, dated 1999)
≈ marks a conversion by molar mass, not a printed value. Where two headings read alike, the source gives them in different places.

How the values were obtained:
tubulin = details: J. Med. Chem. 1991, 34, 2579; cited from earlier work
[1] = tested on: KB (human nasopharynx carcinoma); experiment: In vitro anticancer effect (MTT), KB cell line; assay type: cell-based; details: KB cells, 72 hours, read-out: IC50 (50% cell growth-inhibitory concentration)
Experimental: (§1) In Vitro anticancer effects on KB (human nasopharynx carcinoma), Colon 38 (mouse colon cancer), and WiDr (human colorectal cancer) cell lines
(§2) Each of KB, Colon 38, and WiDr cell lines were respectively cultured using 10% fetal calf serum-supplemented D-MEM medium (Nissui Pharmaceutical). Each monolayer of cells was exfoliated with a 50:50 (v/v) mixture of 0.25% trypsin and 0.02% ethylenediaminetetracetic acid and after inactivation of trypsin, the cells were collected by centrifuging at 800 rpm for 3 minutes and suspended in the same medium as above. Using a hemocytometer, the number of the cells in the suspension were counted. The suspension was diluted with the medium to 5×10^4 cells/ml and distributed to a 96-well flat-bottomed plate, 100 μl per well.
(§3) The test drug was first dissolved in dimethyl sulfoxide at a concentration of 2 mg/ml and diluted with the above medium to 20 μg/ml. Using this solution for the highest concentration, a doubling dilution series was prepared and 100 μl of each dilution was added to the above cell suspension.
(§4) The plate was then incubated under 5% CO2 -air at 37° C. for 72 hours. Then, a 5 mg/ml solution of MTT [3-(4,5-dimethylthiazol-2-yl)-2,5-diphenyltetrazolium bromide] was added to the plate, 30 μl per well and the reaction was carried out under 5% CO2 -air at 37° C. for 4 hours. After the reaction, the solution in each well was aspirated off and 100 μl/well of dimethyl sulfoxide was added. After 5 minutes of shaking, the absorbance at 540 nm was measured with a Multiscan (Titertek) and the 50% cell growth-inhibitory concentration (IC50) was calculated.

[2] = tested on: WiDr (human colorectal cancer); experiment: In vitro anticancer effect (MTT), WiDr cell line; assay type: cell-based; details: WiDr cells, 72 hours, read-out: IC50 (50% cell growth-inhibitory concentration)
Experimental: as §1, §2, §3, §4

[3] = tested on: Colon 38 (mouse colon cancer); experiment: In vitro anticancer effect (MTT), Colon 38 cell line; assay type: cell-based; details: Colon 38 cells, 72 hours, read-out: IC50 (50% cell growth-inhibitory concentration)
Experimental: as §1, §2, §3, §4

microtubule protein = experiment: Microtubule polymerization-inhibitory activity; assay type: biochemical; details: porcine brain microtubule protein, 37° C., pH 6.8, 350 nm; read-out: 50% inhibitory concentration against microtubule protein polymerization
Experimental: Microtubule polymerization-inhibitory activity Microtubule polymerization-inhibitory activity
A microtubule protein (a mixed solution of microtubule protein and microtubule-bound protein) was purified from a crude porcine brain extract according to the method of Williams et al. [Method in Enzymology, 85, 36, 1982] to isolate and the microtubule polymerization inhibitory activity of the compound of the invention was studied. The microtubule protein solution was diluted to 4 mg/ml as purified microtubule protein with GTP (guanosine-5'-triphosphate)-added reaction buffer (pH 6.8) {100 mM MES [2-(N-morpholinoethanesulfonic acid], 0.5 mM MgCl2 -1 mM EGTA (ethylene glycol bis(β-aminoethyl ether)-N,N,N',N'-tetracetic acid), 1 mM GTP} under ice-cooling and after degassing in ice, the test drug was added. Using a spectrophotometer maintained at 37° C., the absorbance of the system at 350 nm was measured at 2-minute intervals for 30 minutes to construct a polymerization curve and the concentration corresponding to 50% inhibition of microtubule protein polymerization was calculated. As the test drug, the compound of Example 3A was used.

[4] = tested on: Colon-26 (mouse colon cancer) cells transplanted in mice; assay type: in vivo, mouse (BALB/c, male); details: oral, once daily for 8 days
Experimental: Anticancer activity against Colon-26 (mouse colon cancer) cells transplanted in mice
Using an injection syringe, Colon-26 cells cultured in vitro were transplanted subcutaneously in a dose of 5×10^5 /animal in the right thoracic region of BALB/c mice (5 weeks old, male). As in Test Example 3, the mice were divided into groups of 6 when the tumor volume had reached about 150 mm^3. Starting the following day, the test drug suspended in 0.5% methylcellulose solution was administered orally by gastric gavage once daily for 8 days. The tumor volume was measured at a predetermined interval by the same method as in Test Example 3 and the tumor growth inhibition rate in each drug treatment group relative to the control group was calculated. As the test compound, the compound of Example 3A was used.

[5] = tested on: WiDr tumor cells transplanted in nude mice; experiment: Growth inhibitory activity against WiDr tumor cells transplanted in nude mice; assay type: in vivo; details: oral; for Growth inhibition rate at day 16 after initiation of administration: once daily
Description: Growth inhibitory activity against WiDr tumor cells transplanted in nude mice The tumor subcutaneously subcultured in nude mice (BALB/c nu/nu, male) aged 5-7 weeks were excised. After removal of the skin and connective tissue around the tumor, the tumor mass was split to remove the central necrotic tissue and, then, cut into cubes with a 2 mm side. One cube was loaded into a grafting needle and transplanted subcutaneously in the right thoracic region of the nude mouse. The major and minor diameters of the tumor were measured with calipers and the tumor volume was calculated by means of Equation 1. Starting when the volume had reached about 100 mm^3, the mice were divided into 6 individuals per group and the test drug suspended in 0.5% methylcellulose solution was administered orally by gastric gavage once daily.
Volume=1/2×major diameter×(minor diameter)^2Equation 1
The tumor volume was determined by the above method at predetermined intervals. From the tumor volume thus calculated, the growth rate was calculated by means of Equation 2. Then, using Equation 3, the growth inhibition rate in each drug treatment group relative to the control group was calculated.
Growth rate=tumor volume at day n/tumor volume at initiation of administration Equation 2
Growth inhibition rate (%)=(1-growth rate in drug treatment group/growth rate in control group)×100 Equation 3
As the test compound, the compound of Example 3A was used.

[6] = tested on: mouse monocytic leukemia P-388 cell line; experiment: In vivo anticancer activity against mouse monocytic leukemia P-388 cell line; set-up: species or system mouse (CDF1); details: oral, twice (following day and after 5 days)
Experimental: In vivo anticancer activity against mouse monocytic leukemia P-388 cell line
A suspension of tumor cells was transplanted intraperitoneally in CDF1 mice in a dose of 10^6 cells/animal. On the following dav and after 5 days, or twice, the test drug suspended in 0.5% methylcellulose solution was administered orally. The experiment was performed in 8-12 mice for each control group and 6 mice for each drug treatment group.
For evaluation, the median survival time in days was determined for each drug treatment group (T) and control group (C) and T/C (%) was calculated.

[7] = Acute toxicity, single oral administration; details: mouse, in vivo, mortality after 2 weeks, probit method
Experimental: Male 5-week-old CDF1 mice were used. After the compound of Example 3B or 34 was orally administered once, the mortality rate was investigated after 2 weeks and the LD50 value was calculated by the probit method. […] The high safety of the compound of the invention is obvious.

SMILES	IC50 [1]	IC50 [2]	IC50 [3]	T/C (median survival time, treated/control) ([6]; 25 mg/kg)	T/C (median survival time, treated/control) ([6]; 50 mg/kg)	T/C (median survival time, treated/control) ([6]; 100 mg/kg)	T/C (median survival time, treated/control) ([6]; 200 mg/kg)	further results
COc1ccc(/C=C\c2cc(OC)c(OC)c(OC)c2)cc1 [(Z)-3,4,5-trimethoxy-4'-methoxystilbene]	–	–	–	–	–	–	–	tubulin polymerization-inhibitory activity (tubulin): have tubulin polymerization-inhibitory activity
COc1ccc(S(=O)(=O)Nc2ncccc2/C=C/c2ccccc2)cc1 [Example 1, (E)-2-[[(p-Methoxyphenyl)sulfonyl]amino]-3-(2-phenyl-ethenyl)pyridine]	0.44 µg/mL (≈ 1.2 µM)	0.45 µg/mL (≈ 1.23 µM)	0.75 µg/mL (≈ 2.05 µM)	–	–	–	–	–
COc1ccc(S(=O)(=O)Nc2ccccc2/C=C\c2cccnc2)cc1 [Example 2 (cis), 3-[2-[2-[[(p-Methoxyphenyl)sulfonyl]amino]phenyl]ethenyl]pyridine]	4.86 µg/mL (≈ 13.3 µM)	4.81 µg/mL (≈ 13.1 µM)	6.48 µg/mL (≈ 17.7 µM)	–	–	–	–	–
COc1ccc(S(=O)(=O)Nc2ccccc2/C=C/c2cccnc2)cc1 [Example 2 (trans), 3-[2-[2-[[(p-Methoxyphenyl)sulfonyl]amino]phenyl]ethenyl]pyridine]	0.1 µg/mL (≈ 0.273 µM)	0.09 µg/mL (≈ 0.246 µM)	0.15 µg/mL (≈ 0.409 µM)	–	–	–	–	–
COc1ccc(S(=O)(=O)Nc2ccccc2/C=C/c2ccncc2)cc1 [Example 3A, (E)-4-[2-[2-[[(p-Methoxyphenyl)sulfonyl]amino]phenyl]ethenyl]pyridine]	0.0026 µg/mL (≈ 0.0071 µM)	0.0025 µg/mL (≈ 0.00682 µM)	0.0031 µg/mL (≈ 0.00846 µM)	–	–	–	–	IC50 (microtubule protein): 11.2 µM; Growth inhibition rate at day 13 after initiation of administration ([4]; 25 mg/kg/day): 44.8%; Growth inhibition rate at day 13 after initiation of administration ([4]; 50 mg/kg/day): 95.3%; Growth inhibition rate at day 16 after initiation of administration ([5]; 10 mg/kg/day): 16.4%; Growth inhibition rate at day 16 after initiation of administration ([5]; 30 mg/kg/day): 57.0%; death by the end of the administration period ([5]; 100 mg/kg, once daily for 14 days): no death occurred; Growth inhibition rate at day 16 after initiation of administration ([5]; 100 mg/kg/day): 81.7%
COc1ccc(S(=O)(=O)Nc2ccccc2/C=C/c2ccncc2)cc1.Cl [Example 3B, (E)-4-[2-[2-[[(p-Methoxyphenyl)sulfonyl]amino]phenyl]ethenyl]pyridine Hydrochloride]	–	–	–	116%	126%	168%	221%	LD50 at 336 h [7]: 510 mg/kg
COc1ccc(S(=O)(=O)Nc2ccccc2/C=C/c2ccccn2)cc1 [Example 4, (E)-2-[2-[2-[[(p-Methoxyphenyl)sulfonyl]amino]phenyl]ethenyl]pyridine]	0.12 µg/mL (≈ 0.327 µM)	0.16 µg/mL (≈ 0.437 µM)	0.16 µg/mL (≈ 0.437 µM)	–	–	–	–	–
COc1ccc(S(=O)(=O)Nc2ccccc2/C=C/c2cc[n+]([O-])cc2)cc1 [Example 20, (E)-4-[2-[2-[[(p-Methoxyphenyl)sulfonyl]amino]phenyl]ethenyl]pyridine 1-oxide]	–	–	–	135%	115%	180%	195%	–
COc1ccc(S(=O)(=O)N(CCO)c2ccccc2/C=C/c2ccncc2)cc1 [Example 34, (E)-4-[2-[2-[N-(2-Hydroxyethyl)-N-[(p-methoxyphenyl)sulfonyl]amino]phenyl]ethenyl]pyridine]	–	–	–	105%	124%	167%	210%	LD50 at 336 h [7]: 754 mg/kg
COc1ccc(S(=O)(=O)N(CCO)c2ccccc2/C=C/c2cc[n+]([O-])cc2)cc1 [Example 49, (E)-4-[2-[2-[N-(2-Hydroxyethyl)-N-[(p-methoxyphenyl)sulfonyl]amino]phenyl]ethenyl]pyridine 1-oxide]	–	–	–	–	–	185%	220%	–
COc1ccc(S(=O)(=O)N(C(C)=O)c2ccccc2/C=C/c2cc[n+]([O-])cc2)cc1 [Example 57, (E)-4-[2-[2-[N-Acetyl-N-[(p-methoxyphenyl)sulfonyl]amino]phenyl]ethenyl]pyridine 1-oxide]	–	–	–	115%	160%	215%	250%	–
